Laboratory results as given in the supplement of paper PMC10307832.

Tests used:
Assay in all cases: relative viability (nuclei count vs DMSO), 5 days (fraction); higher = more cells survive
GSK-J4 + Lapatinib = compound: CCOC(=O)CCNc1cc(N2CCc3ccccc3CC2)nc(-c2ccccn2)n1 [GSK-J4] + CS(=O)(=O)CCNCc1ccc(-c2ccc3ncnc(Nc4ccc(OCc5cccc(F)c5)c(Cl)c4)c3c2)o1 [Lapatinib] (partner 2 µM)
Method in brief: (§1)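 Lung cancer cell lines were seeded in 1536-well plates and dosed by pin tool the next day, with either a single drug or a fixed anchor-drug dose combined with five library-drug doses (not always all listed) spaced in √10 steps. Five days later, one step fixed the cells and stained their nuclei (final 0.05% Triton X-100, 1% formaldehyde, 1 ug/ml Hoechst), and nuclei were counted on 4× images. Relative viability is the nuclei count in treated wells divided by the count in vehicle wells, and each value is the median of duplicate plates.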

GSK-J4 + Dasatinib = compound: CCOC(=O)CCNc1cc(N2CCc3ccccc3CC2)nc(-c2ccccn2)n1 [GSK-J4] + Cc1nc(Nc2ncc(C(=O)Nc3c(C)cccc3Cl)s2)cc(N2CCN(CCO)CC2)n1 [Dasatinib] (partner 0.075 µM)
Method in brief: as §1

AZ3146 + Crizotinib = compound: CN1CCC(CC1)OC2=CC(=C(C=C2)NC3=NC=C4C(=N3)N(C(=O)N4C)C5CCCC5)OC [AZ3146] + C[C@@H](Oc1cc(-c2cnn(C3CCNCC3)c2)cnc1N)c1c(Cl)ccc(F)c1Cl [Crizotinib] (partner 1 µM)
Method in brief: as §1

AZ3146 + Olaparib = compound: CN1CCC(CC1)OC2=CC(=C(C=C2)NC3=NC=C4C(=N3)N(C(=O)N4C)C5CCCC5)OC [AZ3146] + O=C(c1cc(Cc2n[nH]c(=O)c3ccccc23)ccc1F)N1CCN(C(=O)C2CC2)CC1 [Olaparib] (partner 8 µM)
Method in brief: as §1

| Cell Line | relative viability (GSK-J4 + Lapatinib; first compound 0.5 µM) | relative viability (GSK-J4 + Lapatinib; first compound 1.581 µM) | relative viability (GSK-J4 + Lapatinib; first compound 5 µM) | relative viability (GSK-J4 + Lapatinib; first compound 50 µM) | relative viability (GSK-J4 + Dasatinib; first compound 0.5 µM) | relative viability (GSK-J4 + Dasatinib; first compound 1.581 µM) | relative viability (GSK-J4 + Dasatinib; first compound 5 µM) | relative viability (GSK-J4 + Dasatinib; first compound 15.81 µM) | relative viability (GSK-J4 + Dasatinib; first compound 50 µM) | relative viability (AZ3146 + Crizotinib; first compound 0.253 µM) | relative viability (AZ3146 + Crizotinib; first compound 0.8 µM) | relative viability (AZ3146 + Crizotinib; first compound 2.53 µM) | relative viability (AZ3146 + Crizotinib; first compound 8 µM) | relative viability (AZ3146 + Olaparib; first compound 0.253 µM) | relative viability (AZ3146 + Olaparib; first compound 0.8 µM) | relative viability (AZ3146 + Olaparib; first compound 2.53 µM) | relative viability (AZ3146 + Olaparib; first compound 8 µM) | relative viability (GSK-J4 + Lapatinib; first compound 15.81 µM) | relative viability (AZ3146 + Crizotinib; first compound 0.08 µM) | relative viability (AZ3146 + Olaparib; first compound 0.08 µM) |
| --- | --- | --- | --- | --- | --- | --- | --- | --- | --- | --- | --- | --- | --- | --- | --- | --- | --- | --- | --- | --- |
| HCC-78 | 0.707 | 0.684 | 0.846 | 0.738 | 0.562 | 0.374 | 0.651 | 0.3 | 0.319 | 0.326 | 0.329 | 0.387 | 0.361 | 0.863 | 0.765 | 0.767 | 0.798 |  |  |  |
| HCC-366 | 0.969 | 0.786 |  | 0.602 | 0.597 | 0.537 |  | 0.415 | 0.501 | 0.695 | 0.246 | 0.192 | 0.0532 | 0.388 | 0.401 | 0.399 | 0.302 | 0.937 | 0.514 | 0.304 |
| HCC-827 | 0.197 | 0.229 | 0.207 | 0.16 | 0.335 | 0.356 | 0.435 | 0.312 | 0.289 | 0.859 | 1.04 | 0.913 | 0.911 | 0.612 | 0.625 | 0.568 | 0.785 | 0.212 | 0.943 | 0.624 |
| HOP-62 | 0.701 | 0.689 | 0.846 | 0.86 | 0.625 | 0.639 | 0.269 | 0.567 | 0.525 | 0.955 | 0.917 | 1.09 | 0.601 | 0.345 | 0.44 | 0.361 | 0.359 | 1.02 | 0.946 | 0.48 |
| IA-LM | 0.767 | 0.598 | 0.862 | 0.0952 |  |  |  |  |  | 0.654 | 0.898 | 0.615 | 0.115 | 0.808 | 0.91 | 0.919 | 0.486 | 0.624 |  | 0.775 |
| LC-2-ad | 1.04 | 0.743 | 0.809 | 0.664 | 0.689 | 0.429 | 0.535 | 0.44 | 0.351 | 0.511 | 0.481 | 0.494 | 0.321 | 0.724 | 0.697 | 0.733 | 0.658 | 0.904 | 0.365 | 0.697 |
| LCLC-97TM1 |  |  | 1.33 | 0.885 | 0.596 | 0.724 | 0.951 | 0.825 | 0.555 |  | 0.485 | 0.352 | 0.304 | 0.535 | 0.458 | 0.447 | 0.345 | 0.722 |  | 0.52 |
| LCLC-103H |  |  |  |  | 0.406 | 0.428 | 0.256 | 0.281 | 0.45 | 1.08 | 0.984 | 1.08 | 1.11 | 0.765 | 0.778 | 0.749 | 0.745 |  | 0.987 | 0.755 |
| LK-2 | 1.04 | 0.905 | 1.12 | 0.885 | 0.354 |  | 0.267 | 0.229 | 0.241 |  |  | 0.228 | 0.219 | 0.586 | 0.559 | 0.672 | 0.831 | 0.646 | 0.229 | 0.61 |
| LOU-NH91 | 0.688 | 0.754 | 0.626 | 0.64 | 0.65 | 0.612 | 0.432 | 0.506 | 0.631 | 0.699 | 0.746 | 0.71 | 0.75 | 0.91 | 0.972 | 0.904 | 0.925 | 0.625 | 0.749 | 0.922 |
| LU99A | 0.992 | 0.79 | 0.842 | 0.607 | 0.441 | 0.582 |  | 0.457 | 0.374 | 0.584 | 0.555 | 0.555 | 0.452 | 0.26 | 0.24 | 0.271 | 0.257 | 0.921 | 0.502 |  |
| NCI-H441 |  |  |  |  | 0.537 | 0.537 | 0.735 | 0.516 | 0.358 | 0.658 | 0.774 | 0.773 | 0.658 | 0.645 | 0.603 | 0.678 | 0.523 |  | 0.646 | 0.519 |
| NCI-H522 |  |  |  |  | 0.83 | 0.803 | 0.624 | 0.671 | 0.664 |  |  |  |  | 0.685 | 0.515 | 0.695 | 0.596 |  |  | 0.68 |
| NCI-H1299 | 0.861 | 0.924 | 0.851 | 0.875 |  |  |  |  |  | 0.961 | 0.952 | 0.636 | 0.511 | 0.941 | 0.944 | 0.938 | 0.789 | 0.953 | 0.964 | 0.932 |
| NCI-H1395 | 1.22 | 0.955 | 0.759 | 0.648 | 0.402 | 0.428 | 0.382 | 0.355 | 0.375 |  |  |  |  | 0.532 |  | 0.568 | 0.552 | 0.883 |  | 0.485 |
| NCI-H1563 | 0.821 | 0.621 | 0.784 | 0.892 | 0.51 | 0.695 | 0.461 | 0.42 | 0.417 | 0.896 | 0.954 | 0.802 | 0.777 |  |  |  |  | 0.834 | 0.874 |  |
| NCI-H1648 |  |  |  |  |  |  |  |  |  |  |  |  |  |  | 0.987 | 1.18 | 0.802 |  |  |  |
| NCI-H1703 | 0.937 | 0.912 | 0.84 | 0.695 |  |  |  |  |  | 0.59 | 0.384 | 0.365 | 0.241 | 0.383 | 0.517 | 0.346 | 0.402 | 1.11 | 0.447 | 0.424 |
| NCI-H1793 | 0.71 | 0.557 | 0.621 | 0.234 | 0.433 | 0.365 | 0.239 | 0.358 | 0.414 |  |  |  |  | 0.859 | 0.667 | 0.892 | 0.544 | 0.404 |  | 0.864 |
| NCI-H2342 |  |  |  |  | 0.314 | 0.299 | 0.33 | 0.365 | 0.313 |  |  |  |  | 0.474 | 0.529 | 0.487 | 0.695 |  |  | 0.464 |
| SW 900 |  |  |  |  | 0.603 | 0.496 | 0.426 | 0.568 | 0.327 |  |  |  |  |  | 0.785 | 0.846 | 0.754 |  |  | 0.706 |
